# Reference: US20160113895A1, “Novel Use of Adapalene in Treating Esophageal Cancer and Gastrointestinal Stromal Tumor” (Biodelight Biotech Inc., priority 2013, published 2016)
# What was measured:
# [1] = system: four NSCLC cell lines (A549, H1299, H460, HCC827); assay: 2D cell proliferation assay, summary over the NSCLC cell lines; format: cell-based; conditions: Homo sapiens, span over the four NSCLC cell lines
# Procedure: There were eight concentrations used for each drug for determining its IC50. […] Actinomycin D was a chemotherapeutic drug simply used as a quality control for all the experiments.
# In the 2D cell proliferation assay, cells were cultured in DMEM containing 10% FCS and Penicillin/Streptomycin. For the assays, cells were seeded in 150 μL medium on a 96-well cell culture plate and incubated at 37° C. overnight before the compounds were added. […] A day after cell seeding, 10 μL of prediluted compounds was added to the cells (1:16 dilution). Treatment of cells with 0.1% DMSO or 1% DMSO (for the two top concentrations of nsl-8) and 1.0E-05 M Staurosporine was served as high control (100% viability) and low control (0% viability), respectively. Measurement of the impact of compounds on cell viability was performed as follows: 5000 cells (A549 and HCC827) or 2500 cells (H1299 and H460) were seeded in the inner wells of 96-well-plates in 150 μL complete medium. Next day, compounds were added to the medium to reach the final concentration and then incubated at 37° C. in 5% or 10% CO2 depending on the medium for 72 h.
# Raw data were converted into percent cell viability relative to high control (solvent 0.1% DMSO or 1% DMSO for the two top concentrations of drug nsl-8) and low control (1.0E-05 M Staurosporine), which were set to 100% and 0%, respectively.
# H1299 = assay: 3D cell proliferation assay (soft agar), H1299; format: cell-based, human; conditions: Homo sapiens, NCI-H1299, 3D soft agar
# Procedure: Drug nsl-8 was further subjected to a 3D cell proliferation assay for assessing its potential in inhibiting the growth of NSCLC tumors. The same four NSCLC cell lines used in 2D proliferation assays were grown in soft agar and the drug was added after the agar has solidified. The drug added cells were then incubated several days until colonies have formed in the solvent control. Subsequently, Alamar Blue which was a cell viability reagent was added and the corresponding fluorescence released was measured as an indirect quantification of colony growth in soft agar.
# For each cell line, some 96 well culture plates were prepared. 100 μL of the soft agar bottom layer (0.6% final concentration in complete medium) was poured and left to solidify. 50 μL of the soft agar top layer (0.4% final concentration) containing the corresponding cells and cell number were then added on top, solidified and such 96 well plates were incubated overnight at 37° C. in 10% CO2. Next day, drugs were added at indicated final concentrations into the inner wells of the plate. Subsequently, the assays were incubated in cell culture incubators for the indicated period of time. Finally, the assays were developed using Alamar Blue and upon 3-5 h of incubation at 37 ° C. fluorescence intensity was determined (excitation: 560 nm, emission: 590 nm). […]
# A549 implanted tumors = assay: Subcutaneous A549 xenograft model, groups 2a-2c, o.p.; conditions: for Tumor inhibition rate (%): A549, o.p. once daily, Tarceva 20 mpk; for Tumor inhibition rate (%) / Body weight change (%): NSL-8 70 mpk; for Body weight change (%): A549 tumor-bearing mice, Tarceva 20 mpk o.p.
# Procedure: (§1) The antitumor efficacy of the drug lead nsl-8 searched was studied using the subcutaneous xenografted A549 and HCC827 lung cancer tumor models in vivo. […] Mice were maintained in individual ventilated cages (IVC, max. 4 mice/cage) at constant temperature and humidity. Animal weights were determined three times (Monday, Wednesday and Friday) for groups 1a and 1b or two times (Monday and Thursday) for groups 2a-2c and 3a-3c animals. Animal behaviour was monitored daily.
# (§2) On day 0, either 2×10^6 A549 or 2×10^6 HCC827 tumor cells in 100 μL PBS were implanted into the subcutaneous space of the left flank of all corresponding BALB/c nude and SCID mice, respectively. In the following, tumor sizes were determined by caliper measurement. Tumor sizes were calculated according to the formula W^2×Lg/2 (Lg=length and W=the perpendicular width of the tumor, L>W). On day 48 or 30, after mean tumor volumes had reached approx. 100 mm^3, the corresponding tumor-bearing animals were randomized into 2 groups of 8 (A549 model: groups 1a and 1b) or 10 animals (A549 model: groups 2a and 2b) according to tumor sizes. On day 24 or 28, after mean tumor volumes had reached approx. 100 mm^3, the corresponding tumor-bearing animals were randomized into 2 groups of 10 animals (HCC827 model: groups 3a and 3b) according to tumor sizes. […] The percentage of tumor growth inhibition (TGI) was calculated using the following formula: […]
# (§3) where T and C represent the mean tumor volume of the treatment and the control group, respectively.
# (§4) The solution was aliquoted into several 15 ml sterile centrifuge tubes in 650 μl quantity per tube and then stored frozen at −80° C. until use. […] Animals of group 1b received 40 mg/kg nsl-8 dosage solution once daily through i.p. route on days 48-52 and 62-66, while those of groups 2b and 3b received 70 mg/kg nsl-8 dosage solution once daily through o.p. route on days 1-14 (group 2b) and days 1-14 (group 3b), respectively (Table 4).
# (§5) Groups 1a and 1b (A549 model) were terminated on day 69, while groups 2a-2c (A549 model) and 3a-3c (HCC827 model) were terminated on day 15. At necropsy, animals were killed by cervical dislocation. Primary tumor weights and volumes were determined. The tumor volume and weight were analysed using descriptive data analysis (Mean, SEM, Median). Statistical analysis of efficacy data was performed using the unpaired t-test. All the data analyses were performed using GraphPad Prism 5 from GraphPad Software, Inc., San Diego, USA.
# (§6) The serum level of blood urea nitrogen (BUN) was measured for assessing the renal function while those of alanine aminotransferase (ALT) and aspartate aminotransferase (AST) were measured using Ektachem DT system (Johnson & Johnson Clinical Diagnostics) for assessing the liver function. The EDTA treated anticoagulated blood samples were also collected for making a complete peripheral blood count by using a Hematology Analyzer (Sysmex, XT-1800i).
# (§7) For this study, 0.161 ml nsl-8 stock solution made in DMSO was mixed with 1.339 ml 0.9% w/v saline so that the volume of a final dosage solution prepared to feed an animal was 1.5 ml and containing 10% DMSO. Therefore, both administration routes and vehicles used in treating groups 2a-2b and 3a-3b animals were quite different from that used in treating groups 1a-1b animals.
# HCC827 implanted tumors = assay: Subcutaneous HCC827 xenograft model, groups 3a-3c, o.p.; conditions: for Tumor inhibition rate (%): HCC827, o.p. once daily, NSL-8 70 mpk, Tarceva 20 mpk
# Procedure: as §1, §2, §3, §4, §5, §6, §7
smiles,measurement,setting,value
"COc1ccc(-c2ccc3cc(C(=O)O)ccc3c2)cc1C12CC3CC(CC(C3)C1)C2 [nsl-8, 6-[3-(1-adamantyl)-4-methoxyphenyl]-2-naphthalenecarboxylic acid]",IC50,[1],2 to 11 µM
same,IC50,H1299,13 µM
same,"cell counts of white blood cell, red blood cell, or platelet versus vehicle","A549 implanted tumors; A549 model, peripheral blood at end-point, nsl-8 70 mg/kg, Tarceva 20 mg/kg o.p.",no significant difference
same,"serum levels of BUN, ALT, and AST among treatment groups","A549 implanted tumors; A549 model, upon completion of the experiments",no significant difference
same,Tumor inhibition rate (%),A549 implanted tumors; Day 0,0%
same,Body weight change (%),A549 implanted tumors; Day 0,0%
same,Tumor inhibition rate (%),A549 implanted tumors; Day 3,7.1%
same,Body weight change (%),A549 implanted tumors; Day 3,−1.9%
same,Tumor inhibition rate (%),A549 implanted tumors; Day 7,12.0%
same,Body weight change (%),A549 implanted tumors; Day 7,−1.3%
same,Tumor inhibition rate (%),A549 implanted tumors; Day 10,17.8%
same,Body weight change (%),A549 implanted tumors; Day 10,−2.6%
same,Tumor inhibition rate (%),A549 implanted tumors; Day 14,19.1%
same,Body weight change (%),A549 implanted tumors; Day 14,−2.0%
same,decline of body weight upon completion of the experiments,"A549 implanted tumors; group 2b, 70 mg/kg daily o.p.",2.0%
same,Tumor inhibition rate (%),HCC827 implanted tumors; Day 0,0%
same,Tumor inhibition rate (%),HCC827 implanted tumors; Day 3,16.6%
same,Tumor inhibition rate (%),HCC827 implanted tumors; Day 7,13.8%
same,Tumor inhibition rate (%),HCC827 implanted tumors; Day 10,22.4%
same,Tumor inhibition rate (%),HCC827 implanted tumors; Day 14,28.7%
same,counts of neutrophils and lymphocytes,"HCC827 implanted tumors; mouse, in vivo",increase
same,counts of red blood cells,"HCC827 implanted tumors; mouse, in vivo",decrease
same,"serum levels of BUN, ALT, and AST among treatment groups","HCC827 implanted tumors; mouse, in vivo",no significant difference
same,total white blood cells and platelets counted versus vehicle,"HCC827 implanted tumors; mouse, in vivo",no significant difference
